Laboratory results from PubChem BioAssay AID1963830 (Molecular Pharmacology Branch, DTP, NCI, 2024).
Where “and” joins values, the source holds several entries; their conditions need not be identical. Identical values can stand only once.

System: 922993-354-T-J3-PDC complex spheroid viability
Assay: Anticancer human tumor 922993-354-T-J3-PDC patient-derived endometrial carcinoma cell line growth inhibition [POLQ]
Conditions: for viability, T/C: stronger effect = lower value; for IC50: curve of compound
Experimental: Multicellular complex tumor spheroid response to Polymerase (POL) inhibitors (novobiocin, ART-558, RP6685) in combination with a variety of drugs and investigational agents in selected tumor cell lines
The POL inhibitors (novobiocin, ART-558, and RP6685) were evaluated both individually and in combination with standard of care and investigational anticancer small molecules within a complex spheroid model of solid tumors. . Complex spheroids include a stromal component modeled by human endothelial cells (HUVEC) and fibroblasts modeled by human mesenchymal stem cells (MSCs). The concentration ranges selected for each drug and investigational agent were based upon clinically achievable concentrations if the clinical Cmax of the agent was known.
Compounds. The drugs and investigational agents: novobiocin (NSC847541), ART-558 (NSC835418), RP-6685 (NSC848927), peposertib (NSC802822), ceralasertib (NSC780249), elimusertib (NSC800525), camonsertib (NSC841442), AZD-1390 (NSC803789), olaparib (NSC753686), talazoparib (NSC767125), rucaparib (NSC756644), sotorasib (NSC818433), MRTX-1133 (NSC836407), SN-38 (NSC673596), topotecan (NSC609699), epotoside (NSC141540), doxorubicin (NSC123127), gemcitabine (NSC613327), 5-fluorouracil (NSC19893), paclitaxel (NSC125973), vemurafenib (NSC761431), MSA-2 (NSC828583), SN-011 (NSC837082), adavosertib (NSC754352), prexasertib (NSC758257), carboplatin (NSC241240) and oxaliplatin (NSC266046), were obtained from the National Cancer Institute (NCI) Developmental Therapeutics Program Chemical Repository (21). The FDA-approved anticancer drug set is available from the Developmental Therapeutics Program at https://dtp.cancer.gov/organization/dscb/obtaining/. […] The stock solutions were prepared in dimethyl sulfoxide (DMSO, Sigma-Aldrich, St. Louis, MO, cat. D2650), except for the platinum compounds which were prepared in saline (Quality Biological, Gaithersburg, MD, cat. 114-055-101), at 800-fold the tested concentration and stored at -70 degrees C prior to their use. All drugs and investigational agents were tested over a range starting from a high concentration at or near the clinical Cmax and decreasing in half-log increments. If the clinical Cmax for an agent had not been determined, the highest concentration tested was 10 microM, except for SN-38, which was tested at a high concentration of 1 microM.
Cell Culture. All cells were maintained in an incubator at 37 degrees C and 5% CO2 with 95% humidity. The PDC lines were cultured according to standard operating procedures established by the NCI PDMR (https://pdmr.cancer.gov). Table 3 of the manuscript, lists the cell lines along with the number of the three cell types plated to form the mct-spheroids and media for tumor cell growth. After thawing, all PDC lines, except 997537-175-T-J1-PDC and 415267-285-R-J2-PDC, were cultured in Matrigel-coated flasks prepared with a working solution of 1X Ham's F-12 nutrient mix, without supplementation (Thermo Fisher Scientific, cat. 11765054), 100 U/mL penicillin-streptomycin (Thermo Fisher Scientific, cat. 15140122), and 2.5% Matrigel (Corning Inc., Corning, NY, cat. 354248) for the first three passages. The two PDC lines 997537-175-T-J1-PDC and 415267-285-R-J2-PDC were cultured on uncoated flasks. The 857933-349-R-J2-PDC line was cultured in 6C/Colon 1B media containing advanced DMEM/F-12 (Thermo Fisher Scientific, cat. 12634028), 10 mM HEPES (Thermo Fisher Scientific, cat. 15630080), 1X GlutaMAX supplement (Thermo Fisher Scientific, cat. 35050061), 0.1 mg/mL primocin (InvivoGen, San Diego, CA, cat. ant-pm-2), 10% defined fetal bovine serum, heat inactivated (HyClone Laboratories Inc., Logan, UT, cat. SH30070.03HI), 50% L-WRN conditioned media (ATCC, cat. CRL-3276), 1.25 mM N-Acetyl-L-cysteine (Sigma-Aldrich, cat. A9165), 10 mM nicotinamide (Sigma-Aldrich, cat. N0636), 1X B-27 supplement (Thermo Fisher Scientific, cat. 17504044), 1X N-2 supplement (Thermo Fisher Scientific, cat. […]
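Note: spheroids exposed to the agents for one week.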
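Throughout, for viability, T/C: 100% = DMSO vehicle control wells.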

Row | Compound | viability, T/C (compound 0.0316 µM) | viability, T/C (compound 0.1 µM) | viability, T/C (compound 0.316 µM) | viability, T/C (compound 1 µM) | viability, T/C (compound 3.16 µM) | viability, T/C (compound 10 µM) | IC50 | viability, T/C (compound 0.00316 µM) | viability, T/C (compound 0.01 µM) | viability, T/C (compound 0.00949 µM) | viability, T/C (compound 0.03 µM) | viability, T/C (compound 0.0949 µM) | viability, T/C (compound 0.3 µM) | viability, T/C (compound 0.949 µM) | viability, T/C (compound 3 µM) | viability, T/C (compound 0.000316 µM) | viability, T/C (compound 0.001 µM)
1 | C#Cc1c(F)ccc2cc(O)cc(-c3ncc4c(N5CC6CCC(C5)N6)nc(OCC56CCCN5CC(F)C6)nc4c3F)c12 (stereo not drawn) | 108% and 107% and 101% | 95.9% and 99.1% and 99.3% | 97.7% and 108% and 93.2% | 110% and 99.2% and 95% | 96% and 102% and 92.8% | 98.1% and 99.6% and 90.1% | > 10 µM |  |  |  |  |  |  |  |  |  | 
2 | C=CC(=O)N1CCN(c2nc(=O)n(-c3c(C)ccnc3C(C)C)c3nc(-c4c(O)cccc4F)c(F)cc23)C(C)C1 (stereo not drawn) | 107% and 106% and 97.9% | 93.5% and 101% and 94.9% | 96% and 106% and 92.7% | 104% (2×) and 107% | 105% and 104% and 97.4% | 98.8% and 106% and 75% | > 10 µM |  |  |  |  |  |  |  |  |  | 
3 | C=CCn1c(=O)c2cnc(Nc3ccc(N4CCN(C)CC4)cc3)nc2n1-c1cccc(C(C)(C)O)n1 | 88.2% and 102% and 105% | 98.6% and 105% and 101% | 106% and 104% and 103% | 86.5% and 104% and 96% |  |  | > 1 µM | 99% and 101% and 104% | 102% and 97.2% and 98.6% |  |  |  |  |  |  |  | 
4 | CC(=O)O[C@H]1C(=O)[C@@]2(C)[C@H]([C@H](OC(=O)c3ccccc3)[C@]3(O)C[C@H](OC(=O)[C@H](O)[C@@H](NC(=O)c4ccccc4)c4ccccc4)C(C)=C1C3(C)C)[C@]1(OC(C)=O)CO[C@@H]1C[C@@H]2O |  |  |  |  |  |  | > 3 µM |  |  | 105% and 103% and 101% | 99% and 101% and 96.3% | 99.6% and 106% and 95.9% | 105% (2×) and 108% | 101% and 95.8% and 89.9% | 74.1% and 74.5% and 52% |  | 
5 | CC(C)n1c(=O)n(C)c2cnc3cc(F)c(-c4ccc(OCCCN5CCCCC5)nc4)cc3c21 | 109% and 101% and 100% | 103% and 94.2% and 94% | 107% and 99.9% and 97.4% | 99.4% and 95.3% and 105% | 90% and 92.7% and 83.1% | 63.3% and 83% and 68% | > 10 µM |  |  |  |  |  |  |  |  |  | 
6 | CC1COCCN1c1cc(-c2ccnn2C)c2ccnc(-c3ccn[nH]3)c2n1 (stereo not drawn) | 102% and 89.6% and 107% | 66.9% and 60.1% and 93.3% | 23.1% and 29.1% and 69.8% | 11.8% and 12.8% and 36.8% | 9.13% and 7.87% and 19.7% | 10.8% and 9.87% and 13.7% | 0.156 µM and 0.146 µM and 0.63 µM |  |  |  |  |  |  |  |  |  | 
7 | CC1COCCN1c1cc(C2(O)CC3CCC(C2)O3)c2cnn(-c3ccn[nH]3)c2n1 (stereo not drawn) | 91% and 98.1% and 100% | 90.2% and 88.6% and 96.7% | 54.3% and 58.2% and 96.7% | 25.7% and 28.6% and 63.1% | 9.69% and 10.5% and 42.5% | 10.9% and 8.97% and 19.9% | 0.399 µM and 0.441 µM and 2.04 µM |  |  |  |  |  |  |  |  |  | 
8 | CC1COCCN1c1cc(C2(S(C)(=N)=O)CC2)nc(-c2ccnc3[nH]ccc23)n1 (stereo not drawn) | 98.8% and 101% and 94% | 94.9% and 100% and 90.1% | 91.1% and 101% (2×) | 97% and 102% and 99.8% | 93.2% and 104% and 78.1% | 46.8% and 92.4% and 45% | 9.23 µM and > 10 µM and 8.4 µM |  |  |  |  |  |  |  |  |  | 
9 | CCCS(=O)(=O)Nc1ccc(F)c(C(=O)c2c[nH]c3ncc(-c4ccc(Cl)cc4)cc23)c1F | 101% and 107% and 102% | 102% and 103% and 98.4% | 105% and 106% and 94.1% | 104% and 107% and 109% | 97.1% and 103% and 105% | 98.9% and 92.4% and 69.4% | > 10 µM |  |  |  |  |  |  |  |  |  | 
10 | CC[C@@]1(O)C(=O)OCc2c1cc1n(c2=O)Cc2cc3c(CN(C)C)c(O)ccc3nc2-1 | 86.9% and 98% and 91.8% | 54.7% and 87.9% and 41.4% |  |  |  |  | > 0.1 µM and 0.0827 µM | 101% and 97.8% and 99.3% | 98.3% and 98.7% and 106% |  |  |  |  |  |  | 92.2% and 105% and 98.3% | 103% and 105% and 84%
11 | CCc1c2c(nc3ccc(O)cc13)-c1cc3c(c(=O)n1C2)COC(=O)[C@]3(O)CC | 13% and 39.8% and 14.1% | 12.4% and 20.3% and 11.5% | 15.2% and 19.6% and 12.8% | 16.6% and 28.6% and 14.5% |  |  | 0.0105 µM and 0.023 µM and 0.00703 µM | 78.9% and 100% and 95.3% | 51.6% and 79.5% and 29.8% |  |  |  |  |  |  |  | 
12 | CCc1cc2c(N3CCc4c(cc(Cn5ccnc5)cc4-c4cn(C)nc4C(F)(F)F)C3=O)cc(C)nc2c(OC)n1 | 93.1% and 105% and 99.3% | 106% and 104% and 101% | 98% and 103% and 106% | 108% and 107% and 106% | 99.3% and 102% and 104% | 71.7% and 94.3% and 102% | > 10 µM |  |  |  |  |  |  |  |  |  | 
13 | CCc1cc2c(N3CCc4c(cc(Cn5ccnc5)cc4-c4cn(C)nc4C(F)(F)F)C3=O)ccnc2c(OC)n1 | 109% and 106% and 102% | 94.3% and 98% and 103% | 87.5% and 105% and 107% | 107% | 91.8% and 108% and 103% | 80.9% and 97.6% and 101% | > 10 µM |  |  |  |  |  |  |  |  |  | 
14 | CNCc1ccc(-c2[nH]c3cc(F)cc4c3c2CCNC4=O)cc1 | 94.6% and 105% and 109% | 96.8% and 100% and 90.3% | 93.7% and 96% and 96.1% | 105% and 97.1% and 96% | 85.2% and 99.3% and 90.9% | 86.2% and 96.2% and 71.4% | > 10 µM |  |  |  |  |  |  |  |  |  | 
